The subject of data set [1] is COLO 320DM. The data set can be described thus: Antiproliferative activity against human COLO320DM cells assessed as inhibition of cell growth measured after 4 days by CellTiter-Glo assay. It is filed as functional. The settings on record: 96 h. A general note: In ATP-based viability assays light output follows the ATP content of the culture.
Data set [2] concerns COLO 320DM. The data set can be described thus: Antitumor activity against human COLO320DM cells xenografted in Prkdc-NOD-SCID CB17 mouse assessed as tumor growth inhibition. It is filed as functional.
Data set [3] can be described thus: Toxicity in human COLO320DM cells xenografted Prkdc-NOD-SCID CB17 mouse assessed as behavioral changes at 50 mg/kg, ip administered twice daily for 5 days followed by 2 days interval for 2 cycles. The settings on record: in vivo. (In general: A xenograft is tissue or cells of one species grown in another, often human tumour cells in immunodeficient mice.)
For data set [4], the system named is COLO 320DM. The data set can be described thus: Antitumor activity against human COLO320DM cells xenografted in Prkdc-NOD-SCID CB17 mouse assessed as tumor growth inhibition at 10 mg/kg, ip administered twice daily for 5 days followed by 2 days interval for 2 cycles relative to control. The settings on record: read-out: TGI. In kind it is functional.
The test system of data set [5] is COLO 320DM. The data set can be described thus: Antitumor activity against human COLO320DM cells xenografted in Prkdc-NOD-SCID CB17 mouse assessed as tumor growth inhibition at 20 mg/kg, po administered twice daily for 5 days followed by 2 days interval for 2 cycles relative to control. In kind it is functional. The settings on record: read-out: TGI.
Data set [6] is described as follows: Volume of distribution at steady state in Sprague-Dawley rat at 3 mg/kg, iv. It is filed as ADME, organism-based. The conditions noted are these: in vivo, read-out: Vdss.
A short description of data set [7]: Cmax in ICR mouse at 20 mg/kg, ip. It is filed as ADME, organism-based. Also noted: dose 20 mg/kg, route intraperitoneal. The conditions noted are these: in vivo.
Data set [8] in a line: Toxicity in human COLO320DM cells xenografted Prkdc-NOD-SCID CB17 mouse assessed as reduction in crypt proliferation at 50 mg/kg, ip administered twice daily for 5 days followed by 2 days interval for 2 cycles. The settings on record: in vivo.
Data set [9] can be described thus: Tmax in Sprague-Dawley rat at 3 mg/kg, po. In kind it is ADME, organism-based. The conditions noted are these: in vivo.
Data set [10] in a line: Toxicity in human COLO320DM cells xenografted Prkdc-NOD-SCID CB17 mouse assessed as loss of body weight at 50 mg/kg, ip administered twice daily for 5 days followed by 2 days interval for 2 cycles. The conditions noted are these: in vivo.
The nature of data set [11]: AUC (infinity) in ICR mouse at 20 mg/kg, ip. The settings on record: in vivo. It is filed as ADME, organism-based. Also noted: dose 20 mg/kg, route intraperitoneal, time infinity.
For data set [12], the system named is Mus musculus. The data set can be described thus: In vivo inhibition of TNSK/TNSK2-medited WNT/beta-catenin signaling in human COLO320DM cells xenografted Prkdc-NOD-SCID CB17 mouse assessed as reduction in total beta catenin expression in tumor nuclear extract at 10 to 20 mg/kg, ip administered twice daily for 5 days followed by 2 days interval for 2 cycles measured 4 hrs post-last dose by Western blot analysis. It is filed as functional, organism-based.

For data set [13], the target named is Tankyrase 1/2 (Homo sapiens) (UniProt Q9H2K2+O95271). The data set can be described thus: Inhibition of TNKS/TNKS2-mediated WNT/beta-catenin signaling pathway in human COLO320DM cells assessed as reduction in active beta-catenin expression by measuring beta-catenin level at 0.1 uM measured after 16 hrs by Western blot analysis relative to GADPH. It is filed as cell-based.
Tankyrase 1/2 (Homo sapiens), sequence (O95271 whole entry, looked up): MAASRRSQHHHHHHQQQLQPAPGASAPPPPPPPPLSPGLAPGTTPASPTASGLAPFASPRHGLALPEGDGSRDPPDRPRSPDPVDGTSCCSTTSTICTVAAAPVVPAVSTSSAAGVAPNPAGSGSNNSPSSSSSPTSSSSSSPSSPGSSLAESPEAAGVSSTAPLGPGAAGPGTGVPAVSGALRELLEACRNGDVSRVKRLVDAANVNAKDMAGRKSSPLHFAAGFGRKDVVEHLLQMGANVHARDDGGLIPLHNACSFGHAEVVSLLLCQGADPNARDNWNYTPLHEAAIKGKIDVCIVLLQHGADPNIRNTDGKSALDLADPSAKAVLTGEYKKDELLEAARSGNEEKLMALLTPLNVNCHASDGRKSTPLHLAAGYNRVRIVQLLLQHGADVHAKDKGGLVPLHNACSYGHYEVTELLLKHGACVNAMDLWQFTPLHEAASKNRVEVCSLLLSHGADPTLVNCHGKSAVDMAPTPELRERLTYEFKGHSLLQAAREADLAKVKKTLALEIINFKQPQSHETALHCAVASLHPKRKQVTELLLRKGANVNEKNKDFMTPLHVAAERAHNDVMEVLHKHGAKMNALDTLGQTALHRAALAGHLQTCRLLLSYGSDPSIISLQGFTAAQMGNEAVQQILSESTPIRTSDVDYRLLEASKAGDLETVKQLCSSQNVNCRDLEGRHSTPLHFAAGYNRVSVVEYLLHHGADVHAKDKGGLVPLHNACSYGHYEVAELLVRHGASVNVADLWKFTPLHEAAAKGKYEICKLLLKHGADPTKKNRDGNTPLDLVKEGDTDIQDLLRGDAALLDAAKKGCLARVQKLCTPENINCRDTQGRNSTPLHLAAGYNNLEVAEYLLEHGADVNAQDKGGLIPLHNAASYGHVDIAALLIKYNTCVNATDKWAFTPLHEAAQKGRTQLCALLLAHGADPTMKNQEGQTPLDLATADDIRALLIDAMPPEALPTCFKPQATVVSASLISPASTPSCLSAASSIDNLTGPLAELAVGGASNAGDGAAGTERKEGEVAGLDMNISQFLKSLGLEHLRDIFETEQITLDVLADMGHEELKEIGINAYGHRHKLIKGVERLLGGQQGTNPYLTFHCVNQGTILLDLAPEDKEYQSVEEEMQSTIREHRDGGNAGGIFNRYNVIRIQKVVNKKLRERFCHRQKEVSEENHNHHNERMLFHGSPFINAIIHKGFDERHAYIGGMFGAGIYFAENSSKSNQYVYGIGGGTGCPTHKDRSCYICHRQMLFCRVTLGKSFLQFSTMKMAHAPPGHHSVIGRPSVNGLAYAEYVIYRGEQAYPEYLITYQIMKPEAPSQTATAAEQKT
Tankyrase 1/2 (Homo sapiens), sequence (Q9H2K2 whole entry, looked up): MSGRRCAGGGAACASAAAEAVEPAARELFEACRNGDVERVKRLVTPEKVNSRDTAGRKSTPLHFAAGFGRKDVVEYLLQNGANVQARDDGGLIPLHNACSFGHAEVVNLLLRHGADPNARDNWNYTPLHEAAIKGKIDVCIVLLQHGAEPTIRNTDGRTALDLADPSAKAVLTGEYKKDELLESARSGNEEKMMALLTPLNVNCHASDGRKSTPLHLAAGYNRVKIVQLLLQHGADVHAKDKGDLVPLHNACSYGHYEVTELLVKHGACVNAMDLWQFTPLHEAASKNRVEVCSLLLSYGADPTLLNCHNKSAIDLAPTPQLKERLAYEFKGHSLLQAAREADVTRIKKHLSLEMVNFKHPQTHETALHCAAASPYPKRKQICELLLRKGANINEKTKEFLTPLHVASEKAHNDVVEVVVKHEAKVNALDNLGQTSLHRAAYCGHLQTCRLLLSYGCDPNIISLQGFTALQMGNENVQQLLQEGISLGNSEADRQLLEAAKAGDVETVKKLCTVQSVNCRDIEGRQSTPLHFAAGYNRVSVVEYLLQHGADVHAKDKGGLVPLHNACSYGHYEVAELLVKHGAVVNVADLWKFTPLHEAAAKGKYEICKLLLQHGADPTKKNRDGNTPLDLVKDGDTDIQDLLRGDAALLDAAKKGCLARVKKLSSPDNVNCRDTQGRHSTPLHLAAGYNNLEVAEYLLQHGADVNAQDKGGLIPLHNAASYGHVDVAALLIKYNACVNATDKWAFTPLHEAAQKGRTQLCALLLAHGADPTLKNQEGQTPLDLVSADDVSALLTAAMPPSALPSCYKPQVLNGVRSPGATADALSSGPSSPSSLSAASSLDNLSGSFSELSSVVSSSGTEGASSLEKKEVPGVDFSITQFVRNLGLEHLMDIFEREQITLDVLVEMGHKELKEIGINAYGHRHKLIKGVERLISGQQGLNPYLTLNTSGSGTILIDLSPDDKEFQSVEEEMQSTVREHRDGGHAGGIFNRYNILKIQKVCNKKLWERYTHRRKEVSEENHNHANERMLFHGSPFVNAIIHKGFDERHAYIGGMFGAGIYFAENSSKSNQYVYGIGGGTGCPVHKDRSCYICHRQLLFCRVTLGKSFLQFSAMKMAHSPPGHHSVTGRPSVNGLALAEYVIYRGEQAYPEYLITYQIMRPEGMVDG

Data set [14] can be described thus: Toxicity in human COLO320DM cells xenografted Prkdc-NOD-SCID CB17 mouse assessed as epithelial degeneration at 50 mg/kg, ip administered twice daily for 5 days followed by 2 days interval for 2 cycles. The settings on record: in vivo.
The nature of data set [15]: Half life in ICR mouse at 20 mg/kg, po. In kind it is ADME, organism-based. The conditions noted are these: in vivo.
Data set [16] is described as follows: Toxicity in human COLO320DM cells xenografted Prkdc-NOD-SCID CB17 mouse assessed as behavioral changes at 10 to 20 mg/kg, ip administered twice daily for 5 days followed by 2 days interval for 2 cycles measured during compound dosing. It is filed as organism-based. The conditions noted are these: in vivo.
The subject of data set [17] is Mus musculus. The data set can be described thus: In vivo inhibition of TNSK/TNSK2-medited WNT/beta-catenin signaling in human COLO320DM cells xenografted Prkdc-NOD-SCID CB17 mouse assessed as reduction in active-beta catenin expression in tumor nuclear extract at 10 to 20 mg/kg, po administered twice daily for 5 days followed by 2 days interval for 2 cycles measured 4 hrs post-last dose by Western blot analysis. In kind it is functional, organism-based.

Data set [18] in a line: Tmax in ICR mouse at 20 mg/kg, ip. It is filed as ADME, organism-based. The settings on record: in vivo.
A further data set has as its target Cytochrome P450 3A4 (Homo sapiens, UniProt P08684). The data set can be described thus: Inhibition of CYP3A4 in human liver microsomes using midazolam as substrate preincubated for 5 mins followed by NADPH addition and measured for 10 to 30 mins by LC-MS/MS analysis. In kind it is ADME.
Data set [19] in a line: AUC (infinity) in Sprague-Dawley rat at 3 mg/kg, po. It is filed as ADME, organism-based. Also noted: dose 3 mg/kg, time infinity, route oral. The conditions noted are these: in vivo.
In data set [20] the test system is COLO 320DM. The data set can be described thus: Antitumor activity against human COLO320DM cells xenografted in Prkdc-NOD-SCID CB17 mouse assessed as tumor growth inhibition at 20 mg/kg, ip administered twice daily for 5 days followed by 2 days interval for 2 cycles relative to control. In kind it is functional. The settings on record: read-out: TGI.
Data set [21] concerns Mus musculus. The data set can be described thus: In vivo inhibition of TNSK/TNSK2-medited WNT/beta-catenin signaling in human COLO320DM cells xenografted Prkdc-NOD-SCID CB17 mouse assessed as reduction in active-beta catenin expression in tumor nuclear extract at 10 to 20 mg/kg, ip administered twice daily for 5 days followed by 2 days interval for 2 cycles measured 4 hrs post-last dose by Western blot analysis. In kind it is functional, organism-based.

Data set [22] concerns the target Poly [ADP-ribose] polymerase 2 (Homo sapiens, UniProt Q9UGN5). The data set can be described thus: Inhibition of human recombinant N-terminal GST-tagged PARP2 (2 to 583 residues) expressed in baculovirus infected Sf9 cells assessed as reduction in auto-PARylation using histone as substrate measured after 45 mins in presence of biotinylated-NAD+ by ELISA. On the technique in general: An ELISA detects its analyte on a solid surface through an enzyme-linked reagent.

Data set [23] in a line: Plasma concentration in human COLO320DM cells xenografted Prkdc-NOD-SCID CB17 mouse at 20 mg/kg, po administered twice daily for 5 days followed by 2 days interval for 2 cycles measured 4 hrs post-last dose. In kind it is ADME, organism-based.
The nature of data set [24]: Half life in ICR mouse at 20 mg/kg, ip. The settings on record: in vivo. In kind it is ADME, organism-based.
Data set [25] can be described thus: Toxicity in human COLO320DM cells xenografted Prkdc-NOD-SCID CB17 mouse assessed as reduction in appetite at 50 mg/kg, ip administered twice daily for 5 days followed by 2 days interval for 2 cycles. The settings on record: in vivo.
Data set [26] has as its target Poly [ADP-ribose] polymerase 1 (Homo sapiens, UniProt P09874). The data set can be described thus: Inhibition of recombinant human PARP1 expressed in Escherichia coli assessed as reduction in auto-PARylation using histone as substrate measured after 45 mins in presence of biotinylated-NAD+ by ELISA.
Data set [27] in a line: Tmax in ICR mouse at 20 mg/kg, po. In kind it is ADME, organism-based. The conditions noted are these: in vivo.
For data set [28], the system named is Mus musculus. The data set can be described thus: In vivo inhibition of TNSK/TNSK2-medited WNT/beta-catenin signaling in human COLO320DM cells xenografted Prkdc-NOD-SCID CB17 mouse assessed as upregulation of AXIN2 expression in tumor cytosolic extract at 10 to 20 mg/kg, po administered twice daily for 5 days followed by 2 days interval for 2 cycles measured 4 hrs post-last dose by Western blot analysis. In kind it is functional, organism-based.

Data set [29] deals with Mus musculus. The data set can be described thus: In vivo inhibition of TNSK/TNSK2-medited WNT/beta-catenin signaling in human COLO320DM cells xenografted Prkdc-NOD-SCID CB17 mouse assessed as reduction in total beta catenin expression in tumor nuclear extract at 10 to 20 mg/kg, po administered twice daily for 5 days followed by 2 days interval for 2 cycles measured 4 hrs post-last dose by Western blot analysis. In kind it is functional, organism-based.

Active and inactive are the calls of the source. The rule behind the calls is not given here.

Cytochrome P450 3A4, sequence (P08684 whole entry): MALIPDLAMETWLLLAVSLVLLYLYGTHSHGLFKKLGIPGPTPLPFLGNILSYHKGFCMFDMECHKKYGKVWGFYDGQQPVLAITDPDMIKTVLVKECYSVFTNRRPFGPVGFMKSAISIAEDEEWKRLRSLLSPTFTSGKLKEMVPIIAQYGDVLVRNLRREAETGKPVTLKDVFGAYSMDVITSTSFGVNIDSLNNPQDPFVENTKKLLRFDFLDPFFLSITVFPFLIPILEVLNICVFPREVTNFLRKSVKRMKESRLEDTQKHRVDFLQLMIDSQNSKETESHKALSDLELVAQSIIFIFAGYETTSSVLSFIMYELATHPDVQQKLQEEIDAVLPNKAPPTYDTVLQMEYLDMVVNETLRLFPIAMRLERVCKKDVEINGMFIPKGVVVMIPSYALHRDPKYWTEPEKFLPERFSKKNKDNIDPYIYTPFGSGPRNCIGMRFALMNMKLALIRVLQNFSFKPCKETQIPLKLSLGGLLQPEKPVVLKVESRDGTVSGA
Poly [ADP-ribose] polymerase 2, sequence (Q9UGN5 whole entry, the tested form may be a part): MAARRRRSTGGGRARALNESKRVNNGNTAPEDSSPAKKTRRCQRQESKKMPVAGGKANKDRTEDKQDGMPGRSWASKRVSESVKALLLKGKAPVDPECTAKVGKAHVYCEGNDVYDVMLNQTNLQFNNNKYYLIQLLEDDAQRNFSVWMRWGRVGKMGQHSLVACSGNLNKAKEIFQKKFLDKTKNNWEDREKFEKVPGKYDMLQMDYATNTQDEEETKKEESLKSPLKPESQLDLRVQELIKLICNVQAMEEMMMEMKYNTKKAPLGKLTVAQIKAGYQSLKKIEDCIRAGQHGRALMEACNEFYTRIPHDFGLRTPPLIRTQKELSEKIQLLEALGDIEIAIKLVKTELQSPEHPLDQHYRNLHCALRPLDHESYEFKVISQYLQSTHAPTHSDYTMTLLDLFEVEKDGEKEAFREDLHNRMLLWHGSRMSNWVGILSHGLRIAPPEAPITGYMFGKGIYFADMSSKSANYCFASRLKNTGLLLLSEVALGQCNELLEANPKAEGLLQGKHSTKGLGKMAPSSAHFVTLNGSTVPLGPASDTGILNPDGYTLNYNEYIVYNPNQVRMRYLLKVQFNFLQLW
Poly [ADP-ribose] polymerase 1, sequence (P09874 whole entry): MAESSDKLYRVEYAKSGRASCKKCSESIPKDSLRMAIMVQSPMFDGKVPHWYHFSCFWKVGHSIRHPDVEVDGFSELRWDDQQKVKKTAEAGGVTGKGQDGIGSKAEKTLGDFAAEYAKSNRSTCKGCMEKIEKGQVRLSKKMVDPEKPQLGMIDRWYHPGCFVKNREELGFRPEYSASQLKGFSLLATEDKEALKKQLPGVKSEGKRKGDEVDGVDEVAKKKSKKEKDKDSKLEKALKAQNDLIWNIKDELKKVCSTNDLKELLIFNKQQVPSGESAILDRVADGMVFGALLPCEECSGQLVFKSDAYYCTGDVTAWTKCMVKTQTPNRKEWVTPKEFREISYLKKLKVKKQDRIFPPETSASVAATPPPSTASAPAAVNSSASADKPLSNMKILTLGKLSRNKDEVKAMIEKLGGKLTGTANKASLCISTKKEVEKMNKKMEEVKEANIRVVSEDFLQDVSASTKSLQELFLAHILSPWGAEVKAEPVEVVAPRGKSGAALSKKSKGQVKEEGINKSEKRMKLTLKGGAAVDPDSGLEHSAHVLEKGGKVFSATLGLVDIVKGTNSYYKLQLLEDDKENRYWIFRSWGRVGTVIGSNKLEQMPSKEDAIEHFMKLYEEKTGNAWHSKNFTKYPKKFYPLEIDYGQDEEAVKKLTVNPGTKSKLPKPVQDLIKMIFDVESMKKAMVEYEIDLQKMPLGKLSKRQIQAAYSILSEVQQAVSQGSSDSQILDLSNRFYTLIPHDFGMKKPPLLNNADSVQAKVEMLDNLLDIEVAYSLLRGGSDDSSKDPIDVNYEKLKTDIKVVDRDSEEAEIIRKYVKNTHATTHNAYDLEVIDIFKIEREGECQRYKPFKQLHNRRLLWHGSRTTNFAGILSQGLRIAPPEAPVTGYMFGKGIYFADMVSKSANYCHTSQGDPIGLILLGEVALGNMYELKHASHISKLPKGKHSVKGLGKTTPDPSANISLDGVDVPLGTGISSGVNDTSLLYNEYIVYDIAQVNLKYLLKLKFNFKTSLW

Broadly, the GI50 is the concentration giving 50% growth inhibition. For the compound `CN1CCN(c2cc(F)c3c(c2)N(C)C(=O)C32CCN(c3nc4c(c(=O)[nH]3)CCCN4C)CC2)CC1`, in the data set with COLO 320DM [1], the GI50 was determined as 190 nM. Besides, in the data set on COLO 320DM [2], the TGI result is “inactive”.

For orientation: Cmax means the maximum level reached in the sampled fluid or tissue. By Tmax is commonly meant the time from dosing to the highest level. The AUC(0-inf) is the area under the concentration-time curve extrapolated to infinity. Broadly, the half-life is the time in which the quantity being followed falls by half. Low readings indicate rapid decline, high ones slow decline. One may read the IC50 as the midpoint of a concentration-inhibition curve. As for `C[C@@H]1CN(c2cc(F)c3c(c2)N(C)C(=O)C32CCN(c3nc4c(c(=O)[nH]3)CCCN4C)CC2)C[C@H](C)O1`, the Activity result was “Toxic” in data set [3]; “Toxic” in [8]; “Toxic” in data set [10]; “Toxic” in data set [14]; “Non-Toxic” in data set [16]; “Toxic” in data set [25]. In the data set with COLO 320DM [4], the inhibition in vivo at 10 mg/kg was determined as 68.8%. The inhibition in vivo at 20 mg/kg in the data set on COLO 320DM [5] is 52%; in the data set on COLO 320DM [20] it was 71.1%. The Vd in data set [6] came out at 1.02 L/kg. Also, the highest concentration (Cmax) in data set [7] was 75.6 µM. For the same compound, the time of peak concentration (Tmax) came out at 0.33 h in [9], 1 h in [18] and 1 h in data set [27]. Moreover, the AUC(0-inf) in data set [11] stood at 266 µM·h; in data set [19], 33 µM·h. Moreover, the inhibition entry with Mus musculus [12] and in the data set on Mus musculus [21] was “inactive” each time. Further, the fold change (FC) in [13] is 0.39. Also, the half-life is 1.7 h in [15] and 2.8 h in data set [24]. Besides, the GI50 in the data set on COLO 320DM [1] was 230 nM. The inhibition result in the data set with Mus musculus [17], in the data set on Mus musculus [28] and with Mus musculus [29] was “Active” in each case. Further, the IC50 against Cytochrome P450 3A4 was over 10000 nM; in data set [22], 1240 nM; in data set [26], 18200 nM. The concentration at 4 h in data set [23] was 23.3 µM. Besides, the Ratio IC50 in the data set listed under Homo sapiens was found to be 34.

For the origin of these results see ChEMBL document CHEMBL4342498, “Design and Discovery of an Orally Efficacious Spiroindolinone-Based Tankyrase Inhibitor for the Treatment of Colon Cancer” (J Med Chem, 2020).
